From patent US10292973B2, “Covalent irreversible inhibitors of USP7 as anti-cancer agents” (PROGENRA, INC., priority 2015, dated 2019)
“Also recorded” adds a separate entry of the source.

Assays:
USP7core WT = target: T1, USP7core WT (Homo sapiens, UniProt Q93009); assay: Covalent adduct formation with purified USP7core WT by LC-MS; type: binding; conditions: 5 μM USP7core WT, 100 μM compound, room temperature, 4 h
T1 construct: 5 μM purified USP7core WT or active site cysteine mutant C223A were incubated
Description: (§1) FIG. 4 provides data showing an example of the covalent irreversible nature of disclosed USP7 inhibitors. 5 μM purified USP7core WT or active site cysteine mutant C223A were incubated with 100 μM Compound 5 or DMSO at room temperature for 4 hrs, and then the protein/compound reaction products were mixed with equal volume of 0.1% Trifluoroacetic acid (TFA) before LC-MS injection. The samples were analyzed by reverse-phase liquid chromatography coupled to UV and MS detection (Agilent, 6220 Accurate-Mass Time-of-Flight (TOF) LC/MS). […] 5μM purified USP7core WT or C223A were incubated with 100 μM of an exemplary compound of the present invention (for example, Compound 5) or DMSO at room temperature for 4 h, and then the protein/compound reaction products were mixed with equal volume of 0.1% Trifluoroacetic acid (TFA). The samples were analyzed by reverse-phase liquid chromatography coupled to UV and MS detection (Agilent, 6220 Accurate-Mass Time-of-Flight (TOF) LC/MS).

USP7core C223A = USP7core C223A (Homo sapiens, UniProt Q93009, C223A); assay: Covalent adduct formation with active site cysteine mutant USP7core C223A by LC-MS; type: binding; conditions: 5 μM USP7core C223A, 100 μM compound, room temperature, 4 h
Description: as §1

USP7 = target: T2, USP7 (Homo sapiens, UniProt Q93009); assay: DUB activity of USP7 immunoprecipitated from treated Jurkat cells (Ub-EKL assay), pulse treatment and washout; type: cell-based; conditions: washed; for USP7 catalytic activity returned: Jurkat cells exposed 2 hours, immunoprecipitated USP7
T2 construct: USP7 was immuno-precipitated from lysates and USP7 activity measured; endogenous in cells; host or cells: Jurkat cells
Description: FIG. 5A-FIG. 5C graphically illustrate examples of the disclosed USP7 inhibitors of the invention that are irreversible inhibitors. Jurkat cells were treated with 10 μM USP7i for indicated time period (FIG. 5A) or pulse treated for 2 h with 10 μM compound 5 (FIG. 5B), washed and incubated for the indicated time period followed by DUB activity measurement of immunoprecipitated USP7 as well as total cell lysate (FIG. 5C) using Ub-EKL assay as described previously (U.S. Pat. No. 8,680,139). A portion of the immunoprecipitated USP7 is separated on 10% SDS-PAGE and immunoblotted with anti-USP7 antibody to detect the level of USP7 protein (shown at the top of graphs in FIG. 5A and FIG. 5B). […] Jurkat cells were exposed to compound 5 for 2 hours and the compounds were washed away followed by incubation for various time points. Cells were harvested, lysed and their USP7 immunoprecipitated and washed with buffer. […] Jurkat cells were incubated with an exemplary compound of the present invention (e.g., compound 5), washed, and incubated for an additional 0-96 h. USP7 was immuno-precipitated from lysates and USP7 activity measured. […] Total cell deubiquitinase activity can be performed to determine selectivity of these compounds (FIG. 5C). These experiments delineate a simple, powerful biomarker for determining the dose-efficacy relationship in the pre-clinical/clinical evaluation of irreversible USP7 inhibitors. Inhibitors were also tested in cells for effects on various PD markers, including three major USP7 substrates, DNMT1, UHRF1 and HDM2 .

DNMT1, UHRF1 and HDM2 = assay: Immunoblot of USP7 substrates DNMT1, UHRF1 and HDM2 in Jurkat cells; type: cell-based; conditions: 24 h treatment, immunoblot (FIG. 6)
Description: FIG. 6 graphically illustrates a decrease in USP7 oncogenic substrates DNMT1, UHRF1 and HDM2 levels in Jurkat cells treated with the USP7i compound 5. 20 μg total cell lysates from each samples were separated on 10% SDS-PAGE and immunoblotted with antibodies against DNMT1, UHRF1, HDM2 and Actin (loading control).
Jurkat cells were incubated with an exemplary compound of the present invention (e.g., compound 5), washed, and incubated for an additional 0-96 h. USP7 was immuno-precipitated from lysates and USP7 activity measured. […] Total cell deubiquitinase activity can be performed to determine selectivity of these compounds (FIG. 5C). These experiments delineate a simple, powerful biomarker for determining the dose-efficacy relationship in the pre-clinical/clinical evaluation of irreversible USP7 inhibitors. Inhibitors were also tested in cells for effects on various PD markers, including three major USP7 substrates, DNMT1, UHRF1 and HDM2 .

[1] = pooled analysis of 14 phase I-III studies, various doses; cited from earlier work

T2 sequence (Q93009 whole entry): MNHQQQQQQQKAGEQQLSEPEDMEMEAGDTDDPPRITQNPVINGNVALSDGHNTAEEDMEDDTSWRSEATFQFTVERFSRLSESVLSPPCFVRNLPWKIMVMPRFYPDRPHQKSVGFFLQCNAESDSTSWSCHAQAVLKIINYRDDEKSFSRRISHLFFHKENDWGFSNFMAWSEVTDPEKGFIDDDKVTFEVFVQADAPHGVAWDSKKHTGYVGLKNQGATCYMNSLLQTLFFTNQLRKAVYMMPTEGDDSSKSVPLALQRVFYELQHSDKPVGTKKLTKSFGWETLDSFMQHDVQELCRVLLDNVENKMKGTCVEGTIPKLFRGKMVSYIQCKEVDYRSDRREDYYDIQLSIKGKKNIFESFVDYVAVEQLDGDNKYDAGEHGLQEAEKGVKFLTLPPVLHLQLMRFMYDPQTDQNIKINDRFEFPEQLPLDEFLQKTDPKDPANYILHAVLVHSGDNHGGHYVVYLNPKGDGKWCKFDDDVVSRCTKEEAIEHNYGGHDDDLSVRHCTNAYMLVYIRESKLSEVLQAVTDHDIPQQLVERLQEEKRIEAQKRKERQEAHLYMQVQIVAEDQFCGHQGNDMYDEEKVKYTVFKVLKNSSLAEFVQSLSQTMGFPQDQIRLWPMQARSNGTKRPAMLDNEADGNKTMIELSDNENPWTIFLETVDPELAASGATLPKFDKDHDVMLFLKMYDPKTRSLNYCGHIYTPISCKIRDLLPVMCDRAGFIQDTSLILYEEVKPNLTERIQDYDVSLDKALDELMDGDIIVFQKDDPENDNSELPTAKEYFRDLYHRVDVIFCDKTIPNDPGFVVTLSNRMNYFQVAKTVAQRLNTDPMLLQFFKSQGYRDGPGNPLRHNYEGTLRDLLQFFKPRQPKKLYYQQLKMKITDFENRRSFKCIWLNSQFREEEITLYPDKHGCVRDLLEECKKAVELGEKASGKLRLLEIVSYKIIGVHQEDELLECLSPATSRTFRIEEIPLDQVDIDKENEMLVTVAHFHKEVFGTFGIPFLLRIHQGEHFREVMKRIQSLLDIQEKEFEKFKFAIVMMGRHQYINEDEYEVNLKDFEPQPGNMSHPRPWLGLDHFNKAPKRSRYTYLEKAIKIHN
USP7core C223A, sequence (Q93009 214-521 C223A limits assumed): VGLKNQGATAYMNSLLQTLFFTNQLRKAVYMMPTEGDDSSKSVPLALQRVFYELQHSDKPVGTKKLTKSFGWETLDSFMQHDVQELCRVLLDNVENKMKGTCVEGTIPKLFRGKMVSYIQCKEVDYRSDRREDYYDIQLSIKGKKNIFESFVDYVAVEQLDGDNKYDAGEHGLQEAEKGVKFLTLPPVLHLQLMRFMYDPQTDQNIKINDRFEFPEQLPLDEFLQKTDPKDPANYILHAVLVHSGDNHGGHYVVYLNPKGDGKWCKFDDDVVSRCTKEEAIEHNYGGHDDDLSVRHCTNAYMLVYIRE
T1 sequence (Q93009 214-521 limits assumed): as the sequence (Q93009 214-521 C223A limits assumed) above, with A10C counted along it

Molecule | covalent adduct formation with wild type USP7 core (USP7core WT) | covalent adduct formation with active site mutant USP7 core C223A (USP7core C223A) | USP7 catalytic activity returned (USP7; 48 hours after washout) | USP7 catalytic activity returned (USP7; 72 hours after washout) [%] | inhibition of USP7 activity after pulse treatment (USP7; Jurkat cells, 10 μM for 2 h, up to 72 h (FIG. 5B)) | DNMT1 level (DNMT1, UHRF1 and HDM2) | HDM2 level (DNMT1, UHRF1 and HDM2) | UHRF1 level (DNMT1, UHRF1 and HDM2) | patients who experienced immune-related adverse effects [1] [%]
CS(=O)(=O)c1cccc(NC(=O)c2cc([N+](=O)[O-])c(Sc3c(Cl)cncc3Cl)s2)c1 [compound 5, 5-[(3,5-dichloropyridin-4-yl)sulfanyl]-N-[3-(methylsulfonyl)phenyl]-4-nitrothiophene-2-carboxamide] | covalent irreversible adduct formation; also recorded: formed a covalent adduct | not in the active site cysteine mutant enzyme; also recorded: failed to form an adduct | about 55% | 68 | prolonged inhibition of USP7 activity, even after 72 h | decrease | decrease | decrease | 
ipilimumab |  |  |  |  |  |  |  |  | 64
